In patent publication US8815590B2, “Composition and method for differentiation of human embryonic stem cells” (Stem Cells for Safer Medicines Limited, priority 2009, dated 2014):

Assays:
Human ESCs [SHEF3] [1] = assay: Flow cytometry of pluripotency surface markers Tra-1-60 and SSEA4 in treated human ESCs; type: cell-based
Description: (A) Images show typical colonies formed following the indicated treatments. The scale bars represent 1 mm. (B) Histogram plots of ESCs analysed by flow cytometry following immunostaining with antibodies against the pluripotency markers Tra-1-60 or SSEA4. (C) RNA was extracted from the cells and RT-PCR analyses performed using primers specific to the pluripotency genes OCT4 and NANOG and to the house-keeping gene β-ACTIN. (D) Western blot analysis was performed on protein extracted from the cells and immunoblotted with antibodies specific to Oct4. Blots were stripped and reprobed with anti-Gapdh antibodies to assess equal loading. […] SHEF3 cells were treated with the indicated concentration of 1O for 7 days. Images show typical colony morphology. (F) Histogram plots of ESCs analysed by flow cytometry following staining with Tra-1-60 and SSEA4 antibodies. Analysis of percent positive cells and mean fluorescent intensity are indicated on the plots. (G) RT PCR analysis for the expression of OCT4 and NANOG. Bands for each of the genes were from the same gel with intervening samples removed. (H) Western blot analysis of OCT4 protein expression. Proteins bands were from the same immunoblot with intervening samples removed.
SHEF1 and SHEF3 human ESCs were obtained from the UKSCB and cultured as outlined in their protocols. Briefly, ESCs were maintained on mitomycin C-inactivated mouse embryonic fibroblast (MEF) feeder layers in KnockOut Dulbecco's modified Eagle's medium (KO DMEM) (Invitrogen) supplemented with 20% (vol/vol) KO serum replacement (KOSR; Invitrogen), 1 mM non-essential amino acids (NEAA; Invitrogen), 1 mM glutamine (Invitrogen), 0.1 mM 2-mercaptoethanol (BioRad), penicillin/streptomycin, and 4 ng/ml recombinant human FGF2 (Peprotech). Cultures were passage using 1 mg/ml collagenase at a ratio of 1:8 to 1:12 every 7 days. Cultures were transferred to a feeder-free, chemically defined culture system on ESC-qualified Matrigel® (BD) coated plates in mTeSR1® (Stem Cell Technologies) media according to Stem Cell Technologies' protocol.
ESCs were trypsinised (0.05% Trypsin-EDTA) for 10 minutes at 37° C. and resuspended in PBS containing 2% (v/v) FBS (FBS/PBS). […] Cells were washed and stained with secondary fluorescein isothiocyanate (FITC)-conjugated antibodies (SIGMA) for a further 30 minutes, if required. Flow cytometry was performed using a FACSCanto cytometer (Becton Dickenson) and the data were analysed with FACSDiva software. Dead cells were excluded for analyses based on forward and side scatter parameters.

Human ESCs [SHEF3] [2] = assay: Differentiation towards definitive endoderm: immunostaining and RT-PCR of endodermal markers; type: cell-based; details: 2 μM
Description: Human ESCs [SHEF3] were maintained feeder-free on Matrigel® in chemically defined mTeSR1® media and treated with 2 μM 1M for the days indicated. (A) Expression of the endodermal markers FoxA2, Sox17 and HNF4α were analysed by immunofluorescence. Treatment with compound 1M led to expression of all markers after 7 days treatment. Scale bar represents 50 μm. (B) ESCs were harvested on day 7 following treatment with 1M for the indicated days. RNA was extracted and RT-PCR analyses performed using primers selective for the genes indicated. […] (C) BIO induces differentiation towards the DE. SHEF3 ESCs were treated with 2 μM BIO for the times indicated and immunostained with antibodies towards the endodermal markers FOXA2, SOX17 and HNF4α. (D) Compound 1L also induces differentiation towards the DE. SHEF1 ESCs were treated with 2 μM 1L for the times indicated and immunostained with antibodies towards the endodermal markers FOXA2 and HNF4α.
ESCs were cultured feeder-free on Matrigel®-coated plates in mTeSR1® media, supplemented with 2 μM compound 1M for 7 days with the media being refreshed every-other day. Definitive endoderm cultures were passaged with collagenase (1 mg/ml) and plated at a ratio of 1:10 on Matrigel® in KO DMEM supplemented with glutamine, penicillin/streptomycin, NEAA, 2% (v/v) KOSR, 10 ng/ml HGF (Peprotech) and 10 ng/ml FGF4 and cultured for a further 7 days with the media being refreshed every-other day. To allow for maturation of the HLCs, 10 ng/ml oncostatin M (Peprotech) and 10^−7 dexamethasone (SIGMA) were added to the above media and the cells were cultured for an additional 7 days with fresh media every-other day.
Total RNA was isolated and purified using TRIzol Reagent (Invitrogen), following the manufacturer's instructions. All RNA samples were treated with DNase I (Ambion) before cDNA synthesis to eliminate any contaminating genomic DNA. RNA (1 μg) was reverse transcribed into cDNA using Oligo(dT)15 (Promega) and SuperScript II (Invitrogen). Gene-specific PCR was carried out using primers and annealing temperatures outlined in Table 2.
ESCs were cultured on Matrigel®-coated lummox (Greiner Bio One) trays and fixed with 4% paraformaldehyde (PFA) for 20 minutes at room temperature. Cells were permeabilised in PBST (with 0.1% Triton X-100) and blocked in 10% blocking reagent (Roche) before incubating with primary antibodies in 2% blocking reagent overnight at 4° C. After washing in PBS, cells were incubated with FITC-conjugated secondary antibodies (Vector Labs) for 3 hours at room temperature. After further washing, the cells were stained with 4,6-diamidino-2-phenylindole (DAPI) (SIGMA), washed again and mounted in MOWIOL. […]

[3] = MEF culture, concentration 0.5, 7 days
[4] = MEF culture, concentration 2, 7 days
[5] = mTeSR1, concentration 0.5, 7 days
[6] = mTeSR1, concentration 2, 7 days

O=C1NC(=O)C2=C1c1cn(c3ccccc13)CCOCCOCCOCCOCCn1cc2c2ccccc21 [1M]
Expression of pluripotency markers Tra-1-60 and SSEA4 by flow cytometry (in words) (Human ESCs [SHEF3] [1]; 7 days treatment): dramatic decrease in expression
Tra1-60 % pos (Human ESCs [SHEF3] [1]; MEF culture, concentration 0.5 (unit not given), 7 days): 82.1%
SSEA4 % pos (Human ESCs [SHEF3] [1]; [3]): 90.4%
SSEA4 mean (mean fluorescence intensity) (Human ESCs [SHEF3] [1]; [3]): 5805
Tra1-60 mean (mean fluorescence intensity) (Human ESCs [SHEF3] [1]; [3]): 9403
Tra1-60 % pos (Human ESCs [SHEF3] [1]; MEF culture, concentration 2 (unit not given), 7 days): 18.9%
SSEA4 % pos (Human ESCs [SHEF3] [1]; [4]): 72.9%
SSEA4 mean (mean fluorescence intensity) (Human ESCs [SHEF3] [1]; [4]): 1656
Tra1-60 mean (mean fluorescence intensity) (Human ESCs [SHEF3] [1]; [4]): 1092
Tra1-60 % pos (Human ESCs [SHEF3] [1]; mTeSR1 (feeder-free, Matrigel), concentration 0.5, 7 days): 85.9%
Tra1-60 % pos (Human ESCs [SHEF3] [1]; mTeSR1 (feeder-free, Matrigel), concentration 2, 7 days): 25.6%
SSEA4 % pos (Human ESCs [SHEF3] [1]; [5]): 88.6%
SSEA4 mean (mean fluorescence intensity) (Human ESCs [SHEF3] [1]; [5]): 7578
Tra1-60 mean (mean fluorescence intensity) (Human ESCs [SHEF3] [1]; [5]): 11955
SSEA4 % pos (Human ESCs [SHEF3] [1]; [6]): 52.9%
SSEA4 mean (mean fluorescence intensity) (Human ESCs [SHEF3] [1]; [6]): 465
Tra1-60 mean (mean fluorescence intensity) (Human ESCs [SHEF3] [1]; [6]): 312
Differentiation towards the DE (immunostaining FOXA2, SOX17, HNF4α) (Human ESCs [SHEF3] [2]; feeder-free on Matrigel in mTeSR1, up to 7 days): differentiating towards the DE in a time dependent manner
Expression of HNF4α and AFP (early hepatic lineage) (Human ESCs [SHEF3] [2]; following 7 days treatment): expression of HNF4α and α-fetoprotein (AFP) was observed
